The values that follow come from US11648239B2, “Azophenols as ERG oncogene inhibitors” (The Henry M. Jackson Foundation for the Advancement of …, priority 2015, dated 2023).

Data set [1] deals with T1, ERG protein (Homo sapiens, UniProt P11308).
T1 construct: host or cells: VCaP
T1 sequence (P11308 33-479 limits assumed): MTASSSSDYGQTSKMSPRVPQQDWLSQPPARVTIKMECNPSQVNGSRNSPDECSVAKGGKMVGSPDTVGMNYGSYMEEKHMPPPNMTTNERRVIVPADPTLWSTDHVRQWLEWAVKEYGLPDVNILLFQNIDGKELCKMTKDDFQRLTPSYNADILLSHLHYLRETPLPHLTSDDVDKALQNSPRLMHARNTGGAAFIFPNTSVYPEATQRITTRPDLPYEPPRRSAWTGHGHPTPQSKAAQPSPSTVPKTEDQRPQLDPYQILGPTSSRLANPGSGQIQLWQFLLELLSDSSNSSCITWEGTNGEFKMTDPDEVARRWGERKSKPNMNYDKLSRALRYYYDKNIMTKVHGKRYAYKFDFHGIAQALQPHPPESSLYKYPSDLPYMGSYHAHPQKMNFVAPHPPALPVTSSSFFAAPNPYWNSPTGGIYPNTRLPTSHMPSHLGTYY
The data set is described as follows: Inhibition of ERG protein in VCaP cells (Western blot). It is filed as cell-based. The conditions noted are these: VCaP, metastatic prostate cancer, TMPRSS2-ERG fusion; N/D = assay performed, inhibition not detected at the tested levels. As for the experimental part: The TMPRSS2-ERG fusion positive prostate cancer cell line, VCaP (ATCC), was used to identify the test compound inhibitors of ERG expression. Cells were grown in medium using conditions prescribed by the vendor. VCaP cells in logarithmic growth were seeded in a tissue culture dish at a cell density of 2×10^6 cells per plate. Following 48 hours incubation at 37° C., cells were exposed for a period of 48 hours with 0, 0.05, 0.25 and 0.5 μM concentrations of each test azophenol compound. The inhibition of ERG expression was evaluated by an In-cell Western blot assay (LI-COR Biosciences, Lincoln, Nebr.) using the ERG specific CPDR ERG-MAb as further described below.
Inhibition of ERG protein expression by the test compounds were determined by Western blot analysis. The ERG specific monoclonal antibody CPDR ERG-MAb was used as the primary antibody. In brief, Western blot was performed by running a fixed amount of total protein extracted from cell lysates of the treated cells using (4-12% Bis-Tris) gel by electrophoresis, followed by transfer to membrane and incubation with primary antibody and continued with HRP-conjugated secondary antibody. Cultured cells were treated at specific dosages with each of the tested ERG inhibitors. Following incubation of the treated cells for an indicated time period, cells were lysed using Mammalian Protein Extraction Reagent (M-PER; Pierce, Rockford, Ill.) containing a protease inhibitor cocktail and phosphatase inhibitor cocktails I & III (Sigma, St Louis, Mo.). Cell lysates containing 50 μg of total protein were electrophoresed through 4-12% Bis-Tris Gel (Invitrogen, Carlsbad, Calif.) and the cellular proteins were transferred to PVDF membrane (Invitrogen, Carlsbad, Calif.). Membranes were incubated at 4° C. for 12 hours with primary antibodies for AR, PSA, GAPDH, α-Tubulin, apoptosis markers and cell cycle regulators. Following exposure to primary antibodies, the membranes were washed with buffer (3×, 5 minutes each at room temperature) followed by incubation with relevant secondary antibodies for 1 hour at 24° C. Finally, the membranes were washed with buffer and developed using the ECL Western blot detection reagent (GE Health Care, Buckinghamshire, UK). The ERG protein expression of the test azophenol compounds were normalized with GAPDH.
In brief, ERG positive VCaP cells in loganthmic growth phase were plated in 10 cm tissue culture dish at a cell density of 2×10^6 cells per dish. The plated cells were treated with 0, 0.2, 0.4, 0.6, 0.8 and 1 μM concentrations of each azophenol compound for a period of 48 hours. Cells from each dish were then processed for Western blot analysis and alterations in the expression of ERG protein were monitored. Both ERG and GAPDH protein band were quantified from each concentration using Image J (NIH) and ERG band density was normalized with corresponding GAPDH protein control. Relative density of ERG in each concentration was calculated and with Graphpad Prism 6 software, the IC50 of each compound was calculated.

Another data set relates to VCaP cells. The data set is described as follows: VCaP cell growth inhibition. It is filed as cell-based. The conditions noted are these: for IC50: VCaP, metastatic prostate cancer, TMPRSS2-ERG fusion, N/D = assay performed, inhibition not detected at the tested levels. As for the experimental part:
Approximately 48 hours following plating of cells, the appropriate test compound is added to each well of the tissue culture dish at a predetermined concentration. The medium was replenished every 24 hours with fresh growth medium containing the same concentration of the same test compound for indicated period of the cell growth inhibition assay. Percent cell growth inhibition was calculated using a hemocytometer for estimating cell density in each of the test wells of the tissue culture dish and trypan blue dye exclusion microscopy and photography to estimate the fraction of viable cells in each test well.
To investigate whether the azophenol compounds selectively arrested the growth of ERG positive cancer cells (VCaP), VCaP cells were cultured to achieve cells in logarithmic growth and these cells were then plated in 6 well tissue culture dishes in duplicates at a cell density of 0.2×10^6 cells per well. The plated cells were exposed to 0, 0.2, 0.4, 0.6, 0.8 and 1 μM concentrations of each compound for a period of 8 days. At the end of time period, cells were recovered from the test plate, washed, trypsinized and the cell density of viable cells were determined with trypan blue dye staining method and automated cell counter Bio-Rad TC10. The IC50 of cell growth inhibition of each compound was determined by trypsinizing the cells at the end of the experiment and counting the cells by using the automated cell counter (Bio-Rad TC10 automated cell counter). The average cell numbers of each concentration were used to calculate the IC50 of each compound with the GraphPad Prism 6 software.

The target of data set [2] is T2, ERG protein (Homo sapiens, UniProt P11308).
T2 sequence (P11308 1-479): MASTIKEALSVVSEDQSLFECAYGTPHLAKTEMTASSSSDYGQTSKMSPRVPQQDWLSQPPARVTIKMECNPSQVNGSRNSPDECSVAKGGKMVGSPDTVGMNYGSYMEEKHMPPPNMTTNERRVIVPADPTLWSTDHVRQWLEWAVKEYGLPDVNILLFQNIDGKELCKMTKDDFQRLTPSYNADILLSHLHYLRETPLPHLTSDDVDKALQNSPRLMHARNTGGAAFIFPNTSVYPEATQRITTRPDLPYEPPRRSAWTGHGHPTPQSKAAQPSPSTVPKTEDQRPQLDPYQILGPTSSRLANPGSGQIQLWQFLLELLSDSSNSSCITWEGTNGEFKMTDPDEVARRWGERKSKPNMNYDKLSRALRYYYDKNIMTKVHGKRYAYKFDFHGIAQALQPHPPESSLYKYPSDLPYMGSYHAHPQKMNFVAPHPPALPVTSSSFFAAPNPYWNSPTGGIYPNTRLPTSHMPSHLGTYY
The conditions noted are these: PCT US2015/020172; cited from earlier work.

For data set [3], the system named is normal primary endothelial cells. Particulars: PCT US2015/020172; cited from earlier work.
Where [4] appears, read: 0.3, 0.6, 1.0, 3.0 and 10.0 μM, FIG. 25-30.
Setting [5] is: 0.2, 0.4, 0.6, 0.8 and 1 μM, FIG. 19-22, 24.

On to `Cc1cc(O)cc(O)c1N=Nc1nccs1` [Compound 4], for which the 50% inhibitory concentration (IC50) against ERG protein [1] was 1860 nM; in the data set on VCaP cells, 1120 nM. The “inhibition of VCaP cell growth” value with VCaP cells (setting [4]) is reported as “inhibition”.
In the same order, the values of `Cc1cc(N=Nc2nccs2)c(O)cc1O` [Compound 3] are 1350 nM, 4070 nM and “inhibition”.
Turning to `Oc1ccc(N=Nc2ccccn2)c(O)c1` [Compound 5], the IC50 at ERG protein [1] was found to be 542 nM; in the data set with VCaP cells, 557 nM. Also, the “inhibition of VCaP cell growth” value with VCaP cells (setting [5]) and in the data set on VCaP cells (setting [4]) was “inhibition” in each case.
For the molecule `Oc1ccc2ccccc2c1N=Nc1nccs1` [ERGi-USU], the “inhibition of ERG protein in ERG positive cancer cell lines” value at ERG protein [2] was “inhibit the ERG protein”. Also, the “effect on normal primary endothelial cells that endogenously express ERG” value in data set [3] is reported as “minimal effect”.
Consider `CN(C)c1ccc(N=Nc2ccccn2)c(O)c1` [Compound 6], for which the IC50 was determined as 273 nM against ERG protein [1] and 73.9 nM in the data set on VCaP cells. The “inhibition of VCaP cell growth” value is “inhibition” in the data set with VCaP cells (0.02, 0.05, 0.10, 0.20 and 0.40 μM, FIG. 23); “inhibition” in the data set on VCaP cells (setting [5]).
In the case of `CN(C)c1ccc(N=Nc2ccc(Br)cn2)c(O)c1` [Compound 7], the IC50 on ERG protein [1] amounted to 559 nM; with VCaP cells, 626 nM. Moreover, in the data set with VCaP cells (setting [5]), the “inhibition of VCaP cell growth” value is “inhibition”.
